According to US20050197350A1, “Novel quinoline, tetrahydroquinazoline, and pyrimidine derivatives and methods of treatment related to the use thereof” (TAISHO PHARMACEUTICAL CO., LTD., priority 2003, published 2005):

Tested on: MCH receptors
Assay: MCH receptor activity class (method not given)
[1] = class by percent of control at 10^-7 M or IC50
[2] = class by percent of control at 10^−7 M or IC50

Compound	class [1]	further results
CN(C)c1ccnc(N[C@H]2CC[C@@H](NC(=O)Cc3cccc4ccccc34)CC2)n1 [compound 307, N-(cis-4-{[4-(dimethylamino)pyrimidin-2-yl]amino}cyclohexyl)-2-(1-naphthyl)acetamide]	2 (Class 2: The value of percent of control at 10^−7 M was from 40% to 60% or the value of IC′50 was from 50 nM to 200 nM.)	
CN(C)c1ccnc(N[C@H]2CC[C@@H](NC(=O)NC(c3ccccc3)c3ccccc3)CC2)n1 [compound 2209, N-(cis-4-{[4-(dimethylamino)pyrimidin-2-yl]amino}cyclohexyl)-N′-(diphenylmethyl)urea]	1 (Class 1: The value of percent of control at 10^−7 M was less than 40% or the value of IC50 was less than 50 nM.)	
CN(C)c1nc(N[C@H]2CC[C@@H](NC(=O)Nc3c(F)cccc3F)CC2)nc2c1CCCC2 [compound 1820]	3 (Class 3 The value of percent of control at 10^−7 M was more than 60% or the value of IC50 was more than 200 nM.)	
COc1cccc([C@H](C)NC(=O)[C@H]2CC[C@@H](Nc3nc(C)cc(N(C)C)n3)CC2)c1 [compound 2803, cis-4-{[4-(dimethylamino)-6-methylpyrimidin-2-yl]amino}-N-[(1S)-1-(3-methoxyphenyl)ethyl]cyclohexanecarboxamide]		class [2]: 2 (Class 2: The value of percent of control at 10^−7 M was from 40% to 60% or the value of IC′50 was from 50 nM to 200 nM.)
CN(C)c1cc(N[C@H]2CC[C@@H](CNCc3cc(F)cc(C(F)(F)F)c3)CC2)nc2ccccc12 [compound 1198]	3 (Class 3 The value of percent of control at 10^−7 M was more than 60% or the value of IC50 was more than 200 nM.)	
Cc1ccc(OC(=O)NC[C@H]2CC[C@@H](Nc3nc4c(c(N(C)C)n3)CCCC4)CC2)cc1 [compound 1614]		class (activity class 1-3: percent of control at 10^-7 M or IC50): 3 (Class 3 The value of percent of control at 10^−7 M was more than 60% or the value of IC50 was more than 200 nM.)
Cc1ccc(-c2ccc(C(=O)NC[C@H]3CC[C@@H](Nc4nccc(N(C)C)n4)CC3)o2)c([N+](=O)[O-])c1 [compound 938]	3 (Class 3 The value of percent of control at 10^−7 M was more than 60% or the value of IC50 was more than 200 nM.)	
CN(C)c1ccnc(N[C@H]2CC[C@@H](NC(=O)Nc3ccc4c(c3)OCCCO4)CC2)n1 [compound 2254]	3 (Class 3 The value of percent of control at 10^−7 M was more than 60% or the value of IC50 was more than 200 nM.)	
COc1cc(CNC[C@H]2CC[C@@H](Nc3nccc(N(C)C)n3)CC2)cc(OC)c1OC [compound 1257]	2 (Class 2: The value of percent of control at 10^−7 M was from 40% to 60% or the value of IC′50 was from 50 nM to 200 nM.)	
COc1ccc(N(C)CC(=O)N[C@H]2CC[C@@H](Nc3ncc(C)c(N(C)C)n3)CC2)cc1 [compound 2948]		class [2]: 2 (Class 2: The value of percent of control at 10^−7 M was from 40% to 60% or the value of IC′50 was from 50 nM to 200 nM.)
Cc1cc2occ(CN[C@H]3CC[C@@H](Nc4nc5c(c(N(C)C)n4)CCCC5)CC3)c(=O)c2cc1Cl [compound 1349]	3 (Class 3 The value of percent of control at 10^−7 M was more than 60% or the value of IC50 was more than 200 nM.)	
Cc1ccc(C(=O)c2ccccc2C(=O)N[C@H]2CC[C@@H](Nc3cc(N(C)C)c4ccccc4n3)CC2)cc1 [compound 759]	3 (Class 3 The value of percent of control at 10^−7 M was more than 60% or the value of IC50 was more than 200 nM.)	
Cc1ccc(Cl)c(C(=O)NC[C@H]2CC[C@@H](Nc3nc4c(c(N(C)C)n3)CCCC4)CC2)c1F [compound 670]	3 (Class 3 The value of percent of control at 10^−7 M was more than 60% or the value of IC50 was more than 200 nM.)	
CN(C)c1nc(N[C@H]2CC[C@@H](NC(=O)c3ccc(Br)cc3)CC2)nc2c1CCCC2 [compound 458]		class (class 1-3 by percent of control at 10^-7 M or IC50): 2 (Class 2: The value of percent of control at 10^−7 M was from 40% to 60% or the value of IC′50 was from 50 nM to 200 nM.)
Cc1onc(-c2ccccc2)c1NC(=S)N[C@H]1CC[C@@H](Nc2cc(N(C)C)c3ccccc3n2)CC1 [compound 2309]		class (MCH receptor activity class 1-3 (percent of control at 10^-7 M or IC50)): 3 (Class 3 The value of percent of control at 10^−7 M was more than 60% or the value of IC50 was more than 200 nM.)
